Measured values as given in the NIST ThermoML archive (doi:10.1016/j.jct.2017.04.015).

Assay: mn = molality of the nth substance listed, in mol/kg
Settings: 101.3 kPa, Liquid; for speed of sound: Frequency=2 MHz, Linear variable-path acoustic interferometer; for mass density: Pycnometric method

CCN(CC)CCOC(=O)c1ccc(N)cc1.Cl [2-diethylaminoethyl p-aminobenzoate hydrochloride] + O
Settings | mass density [kg/m3] | speed of sound [m/s]
288.15 K, m1 = 0.01 | 999.6 | 1467.5
288.15 K, m1 = 0.02 | 1000.1 | 1469.1
288.15 K, m1 = 0.0301 | 1000.6 | 1470.7
288.15 K, m1 = 0.04 | 1001.1 | 1472.3
288.15 K, m1 = 0.05 | 1001.6 | 1473.9
288.15 K, m1 = 0.055 | 1001.85 | 1474.7
288.15 K, m1 = 0.0599 | 1002.09 | 1475.4
288.15 K, m1 = 0.065 | 1002.34 | 1476.2
288.15 K, m1 = 0.0701 | 1002.6 | 1477
288.15 K, m1 = 0.0751 | 1002.85 | 1477.7
288.15 K, m1 = 0.0801 | 1003.1 | 1478.5
288.15 K, m1 = 0.0852 | 1003.35 | 1479.2
288.15 K, m1 = 0.0898 | 1003.58 | 1480
288.15 K, m1 = 0.0952 | 1003.85 | 1480.7
288.15 K, m1 = 0.1 | 1004.09 | 1481.4
298.15 K, m1 = 0.0098 | 997.52 | 1498.3
298.15 K, m1 = 0.0196 | 997.99 | 1499.9
298.15 K, m1 = 0.0297 | 998.49 | 1501.5
298.15 K, m1 = 0.0406 | 999.02 | 1503.2
298.15 K, m1 = 0.0492 | 999.44 | 1504.6
298.15 K, m1 = 0.0534 | 999.65 | 1505.3
298.15 K, m1 = 0.061 | 1000.02 | 1506.5
298.15 K, m1 = 0.0636 | 1000.15 | 1506.9
298.15 K, m1 = 0.0688 | 1000.4 | 1507.7
298.15 K, m1 = 0.0758 | 1000.74 | 1508.8
298.15 K, m1 = 0.0783 | 1000.86 | 1509.2
298.15 K, m1 = 0.0846 | 1001.17 | 1510.2
298.15 K, m1 = 0.09 | 1001.44 | 1511
298.15 K, m1 = 0.0951 | 1001.68 | 1511.7
298.15 K, m1 = 0.1003 | 1001.94 | 1512.5
308.15 K, m1 = 0.01 | 994.51 | 1521.4
308.15 K, m1 = 0.02 | 995 | 1523
308.15 K, m1 = 0.03 | 995.48 | 1524.6
308.15 K, m1 = 0.0401 | 995.97 | 1526.2
308.15 K, m1 = 0.0499 | 996.44 | 1527.8
308.15 K, m1 = 0.055 | 996.69 | 1528.6
308.15 K, m1 = 0.06 | 996.93 | 1529.4
308.15 K, m1 = 0.065 | 997.17 | 1530.1
308.15 K, m1 = 0.0698 | 997.4 | 1530.9
308.15 K, m1 = 0.075 | 997.65 | 1531.7
308.15 K, m1 = 0.0801 | 997.9 | 1532.5
308.15 K, m1 = 0.085 | 998.14 | 1533.2
308.15 K, m1 = 0.09 | 998.38 | 1534
308.15 K, m1 = 0.095 | 998.62 | 1534.7
308.15 K, m1 = 0.1 | 998.86 | 1535.4

[Cl-].[K+] [potassium chloride] + O
Settings | mass density, 288.15 K [kg/m3] | mass density, 298.15 K [kg/m3] | mass density, 308.15 K [kg/m3] | speed of sound, 288.15 K [m/s] | speed of sound, 298.15 K [m/s] | speed of sound, 308.15 K [m/s]
m1 = 0.06 | 1002.26 | 1000.42 | 997.25 | 1467.4 | 1498.3 | 1522.2
m1 = 0.1 | 1003.48 | 1001.79 | 998.71 | 1469.6 | 1502.5 | 1525.1
